# Read-outs that look alike come from different tables or passages of the source.
# Tests used:
# [1] = molecular target: picrotoxin-binding site of the GABA-A receptor; assay: Displacement of 35S-TBPS from brain membranes; design: species or system rats; conditions: for IC50: tissue not stated; for Inhibition of the tritiated ligands % TBPS: 10 μM
# [2] = tested on: GABA-binding site of the GABA-A receptor; assay: Displacement of tritiated muscimol from brain membranes; conditions: for Muscimol: stimulation: stimulation instead of displacement
# [3] = tested on: Ro15-4513 binding (GABA-A receptor); assay: Ro15-4513 displacement; conditions: for Ro15-4513 displacement: 100 μM
# [4] = molecular target: T1, benzodiazepine-binding site of the GABA-A receptor (Rattus norvegicus, UniProt P18508+P62813); assay: Displacement of tritiated flunitrazepam from brain membranes; conditions: for inhibition at 100 µM: read-out: Inhibition of the tritiated ligands % Flu (100 μM)
# T1 construct: IC50 Flu / BZ receptor; other: cerebellum (ce); other: cerebellum (ce; BZ1 subtype); other: 10 μM; cerebellum; other: 100 μM; other: 0.5 μM
# T1 sequence (P62813 28-455): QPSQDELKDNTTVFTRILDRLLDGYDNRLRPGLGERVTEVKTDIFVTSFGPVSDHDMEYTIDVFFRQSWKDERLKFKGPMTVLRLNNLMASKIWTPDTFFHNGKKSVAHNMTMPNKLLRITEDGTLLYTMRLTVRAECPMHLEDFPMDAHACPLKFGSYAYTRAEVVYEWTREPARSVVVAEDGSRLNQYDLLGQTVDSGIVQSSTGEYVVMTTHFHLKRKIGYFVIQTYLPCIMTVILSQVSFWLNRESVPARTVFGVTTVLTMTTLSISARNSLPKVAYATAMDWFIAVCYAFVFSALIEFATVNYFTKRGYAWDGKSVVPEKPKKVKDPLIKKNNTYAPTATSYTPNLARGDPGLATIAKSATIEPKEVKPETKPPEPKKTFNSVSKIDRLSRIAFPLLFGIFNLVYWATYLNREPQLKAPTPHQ
# T1 sequence (P18508 39-466): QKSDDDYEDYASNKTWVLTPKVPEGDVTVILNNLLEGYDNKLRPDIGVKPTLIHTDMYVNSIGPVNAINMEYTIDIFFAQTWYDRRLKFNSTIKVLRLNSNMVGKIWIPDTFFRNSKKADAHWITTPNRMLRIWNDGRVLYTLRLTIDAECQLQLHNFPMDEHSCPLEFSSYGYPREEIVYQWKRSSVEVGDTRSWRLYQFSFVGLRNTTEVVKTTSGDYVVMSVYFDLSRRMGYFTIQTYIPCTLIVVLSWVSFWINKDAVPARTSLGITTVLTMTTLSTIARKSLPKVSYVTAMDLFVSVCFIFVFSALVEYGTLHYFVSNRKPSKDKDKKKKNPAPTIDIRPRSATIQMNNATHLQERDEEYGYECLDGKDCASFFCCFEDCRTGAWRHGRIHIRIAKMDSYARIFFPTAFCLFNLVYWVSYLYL
# T1 sequence (P63138 26-474 partner): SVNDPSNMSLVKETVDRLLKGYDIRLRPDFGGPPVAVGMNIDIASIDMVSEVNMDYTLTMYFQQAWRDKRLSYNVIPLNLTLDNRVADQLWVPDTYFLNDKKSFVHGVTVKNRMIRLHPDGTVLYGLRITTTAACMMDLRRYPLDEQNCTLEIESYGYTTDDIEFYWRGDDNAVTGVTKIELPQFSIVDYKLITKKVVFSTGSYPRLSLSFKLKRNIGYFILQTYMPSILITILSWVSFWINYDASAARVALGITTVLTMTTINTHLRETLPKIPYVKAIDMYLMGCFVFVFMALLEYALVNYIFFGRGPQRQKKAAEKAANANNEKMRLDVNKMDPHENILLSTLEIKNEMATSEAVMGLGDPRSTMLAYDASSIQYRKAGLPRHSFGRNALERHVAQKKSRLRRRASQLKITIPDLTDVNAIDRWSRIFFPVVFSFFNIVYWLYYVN
# [5] = molecular target: T2, α1β2γ2 subtype of the GABA receptor (Rattus norvegicus, UniProt P18508+P62813+P63138); assay: Electrophysiology: modulation of GABA currents in Xenopus oocytes expressing recombinant GABA-A receptors; type: cell-based; conditions: for % stimulation of the GABA currents / % stimulation of the GABA currents (100 μM): α1β2γ2 in oocytes; for % stimulation of the GABA currents (100 μM): 100 μM compound with GABA
# T2 construct: expressed in transfected cells; host or cells: Xenopus laevis oocytes (cRNA injection)
# T2 sequence (P62813 28-455): as the sequence (P62813 28-455) above
# T2 sequence (P63138 25-474 limits assumed): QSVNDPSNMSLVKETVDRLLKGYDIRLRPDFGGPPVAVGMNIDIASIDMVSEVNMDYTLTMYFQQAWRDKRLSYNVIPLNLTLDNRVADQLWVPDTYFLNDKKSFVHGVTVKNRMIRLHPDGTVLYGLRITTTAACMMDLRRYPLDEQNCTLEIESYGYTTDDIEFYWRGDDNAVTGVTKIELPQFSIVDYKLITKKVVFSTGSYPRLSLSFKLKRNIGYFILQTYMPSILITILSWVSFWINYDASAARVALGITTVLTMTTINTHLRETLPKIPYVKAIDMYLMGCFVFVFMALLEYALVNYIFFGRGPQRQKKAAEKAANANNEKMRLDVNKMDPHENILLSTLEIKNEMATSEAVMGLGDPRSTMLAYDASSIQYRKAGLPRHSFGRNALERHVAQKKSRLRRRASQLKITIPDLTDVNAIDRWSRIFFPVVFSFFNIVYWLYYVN
# T2 sequence (P18508 39-466): as the sequence (P18508 39-466) above
# [6] = tested on: recombinant receptors of the composition of αxβ2γ2 subunits in which x=1, 2, 3, 5, 6; assay: Stimulation of the GABA current at recombinant receptors with other α subunits; type: cell-based; conditions: α1 replaced by the α2, α3, α5 or α6 subunit
# [7] = tested on: benzodiazepine-binding site of the GABA-A receptor; assay: Displacement of tritiated flunitrazepam from brain membranes; conditions: for IC50: read-out: IC50 Flu / BZ receptor
# [8] = molecular target: T3, picrotoxin-binding site of the GABA-A receptor; assay: Displacement of 35S-TBPS from brain membranes; design: species or system rats; conditions: cerebellum
# T3 construct: other: cerebellum
# [9] = molecular target: T4, picrotoxin-binding site of the GABA-A receptor; assay: Displacement of 35S-TBPS from brain membranes; design: species or system rats; conditions: cortex
# T4 construct: other: cortex
smiles,measurement,setting,value
COc1ccc(S(=O)(=O)N2CCc3ccccc3C2C2CCC(=O)O2)cc1 (mixture of isomers) [Compound 72],IC50,[1],~100 µM
same,Displacement of muscimol,[2]; 100 μM,Muscimol: 100 μM = 0% Ro15-4513: 100 μM = 0%
same,Ro15-4513 displacement,[3],Muscimol: 100 μM = 0% Ro15-4513: 100 μM = 0%
same,Inhibition of the tritiated ligands % Flu (100 μM),[4]; tissue not stated,0%
"COc1cc2c(cc1OC)C([C@H]1C=CC(=O)O1)N(C(=O)OCc1ccccc1)CC2 (mixture of isomers) [Compound 32a, (±)-(1R,2′R)-1-(2,5-Dihydro-5-oxo-2-furyl)-2-N-benzyloxycarbonyl-6,7-dimethoxy-1,2,3,4-tetrahydroisoquinoline]",stimulation of the GABA currents (in words),[5]; α1β2γ2 receptor,only weakly stimulates
same,stimulation when the α1 subunit is replaced,[6],greatly increased
same,Displacement of muscimol,[2]; concentration not given,Displacement of muscimol = 0%
O=C1CCC(C2c3ccccc3CCN2S(=O)(=O)c2ccc(OC(F)(F)F)cc2)O1 (mixture of isomers) [Compound 71],Muscimol: stimulation,[2]; 100 μM,weak stimulation at 100 μM in the cortex alone
same,IC50,[3],> 100 µM
same,IC50,"[4]; tissue not stated, read-out: IC50 Flu / BZ receptor",> 100 µM
"Cc1ccc(S(=O)(=O)N2CCc3ccccc3C2[C@H]2CCC(=O)O2)cc1 (mixture of isomers) [Compound 67, (±)-(1R,2′R)-1-(2,3,4,5-Tetrahydro-5-oxo-2-furyl)-2-N-p-toluenesulfonyl-1,2,3,4-tetrahydroisoquinoline]",% stimulation of the GABA currents,[5]; 0.1 μM compound,7 ± 5%
same,% stimulation of the GABA currents (100 μM),[5],+579 ± 106%
same,% stimulation of the GABA currents (100 μM),[5]; listed as (+/−) 67,+579%
same,Muscimol: stimulation,[2]; 100 μM,Muscimol: 5-10% stimulation at 100 μM
same,Inhibition of the tritiated ligands % Flu,"[4]; 10 μM, tissue not stated",20%
same,Inhibition of the tritiated ligands % Flu (100 μM),[4]; cerebellum,50%
same,Inhibition of the tritiated ligands % Flu (100 μM),[4]; cortex,30%
same,Inhibition of the tritiated ligands % Flu,"[7]; 0.5 μM, tissue not stated",0%
"O=C1CCC(C2c3ccccc3CCN2C(=O)OCc2ccccc2)O1 (racemic) [Compound 54, (±)-(1R,2′R)-2-N-Benzyloxycarbonyl-1-(2,3,4,5-tetrahydro-5-oxo-2-furyl)-1,2,3,4-tetrahydroisoquinoline]",% stimulation of the GABA currents,[5]; 0.1 μM compound,+4 ± 10%
same,% stimulation of the GABA currents (100 μM),[5],+351 ± 17%
same,% stimulation of the GABA currents (100 μM),[5]; listed as (+/−) 54,+351%
same,% of the stimulation inhibited by flumazenil,"[5]; stimulation by 10 μM compound, 1 μM flumazenil, α1β2γ2",78%
same,Inhibition of the tritiated ligands % TBPS,[1],10 μM = 0%
same,IC50,[3],0.2 µM
same,IC50,[7]; cerebellum (ce; BZ1 subtype),40 nM
same,IC50,[7]; cortex (co = whole brain without cerebellum; BZ2 subtype),150 nM
O=C1C=C[C@@H]([C@H]2c3ccccc3CCN2C(=S)Oc2ccccc2)O1 (racemic) [Compound 64],% stimulation of the GABA currents (100 μM),[5],+265 ± 50%
same,IC50,[8],30 µM
same,IC50,[9],> 100 µM
same,Displacement of muscimol,[2]; 100 μM,Muscimol: 100 μM = 0% Ro15-4513: 100 μM = 0%
same,Ro15-4513 displacement,[3],Muscimol: 100 μM = 0% Ro15-4513: 100 μM = 0%
same,inhibition at 100 µM,[4]; tissue not stated,0%
"O=C1CCC(C2c3ccccc3C=CN2C(=O)OCc2ccccc2)O1 (racemic) [Compound 75, (±)-(1R,2′R)-2-N-Benzyloxycarbonyl-1-(2,3,4,5-tetrahydro-5-oxo-2-furyl)-1,2-dihydroisoquinoline]",% stimulation of the GABA currents,[5]; 10 μM compound,+148 ± 21% (10 μM)
same,melting point,,109 to 111 °C
COc1cc2c(cc1OC)C(C1CCC(=O)O1)N(C)CC2 (racemic) [Compound 28],% stimulation of the GABA currents,[5]; 200 μM compound,200 μM = +2%
same,Ro15-4513 displacement,[3],Ro15-4513 displacement 100 μM = 50%
same,inhibition at 100 µM,[4]; tissue not stated,50%
O=C1C=CC(C2c3ccccc3CCN2C(=O)Oc2ccccc2)O1 (racemic) [Compound 58],% stimulation of the GABA currents,[5]; 0.1 μM compound,0%
same,% stimulation of the GABA currents (100 μM),[5],+159 ± 8%
same,Inhibition of the tritiated ligands % TBPS,[1],0%
same,Displacement of muscimol,[2]; 100 μM,100 μM = 0%
same,Inhibition of the tritiated ligands % Flu (100 μM),[4]; tissue not stated,70%
same,Inhibition of the tritiated ligands % Flu,"[7]; 0.5 μM, tissue not stated",0%
same,Inhibition of the tritiated ligands % Flu,"[7]; 10 μM, tissue not stated",45%
"O=C1CC[C@H]([C@H]2c3ccccc3CCN2S(=O)(=O)c2ccccc2)O1 (racemic) [Compound 65, (±)-(1R,2′R)-2-N-Benzenesulfonyl-1-(2,3,4,5-tetrahydro-5-oxo-2-furyl)-1,2,3,4-tetrahydroisoquinoline]",% stimulation of the GABA currents (100 μM),[5],+423%
same,% stimulation of the GABA currents (100 μM),[5]; listed as (+/−) 65,+423%
same,IC50,[1],~100 µM
same,Muscimol: stimulation,[2]; 100 μM,weak stimulation
same,melting point,,177 to 179 °C
same,IC50,[3],20 µM
"O=C1CCC(C2c3ccccc3CCN2S(=O)(=O)c2ccc(Cl)cc2)O1 (racemic) [Compound 66, (±)-(1R,2′R)-1-(2,3,4,5-Tetrahydro-5-oxo-2-furyl)-2-N-p-chlorobenzenesulfonyl-1,2,3,4-tetrahydroisoquinoline]",% stimulation of the GABA currents (100 μM),[5],+479%
same,% stimulation of the GABA currents (100 μM),[5]; listed as (+/−) 66,+479%
same,melting point,,145 to 147 °C
COc1cc2c(cc1OC)[C@H]([C@@H]1CCC(=O)O1)NCC2 (racemic),melting point,,119 °C
O=C1CCC(C2c3ccccc3CCN2S(=O)(=O)c2ccc(C(F)(F)F)cc2)O1 (mixture of isomers) [Compound 70],Muscimol: stimulation,[2]; 100 μM,weak stimulation at 100 μM in the cortex alone
same,IC50,[3],> 100 µM
same,IC50,[7]; tissue not stated,> 100000 nM
O=C1C=C[C@H]([C@H]2c3ccccc3CCN2C(=S)Oc2ccccc2)O1 (racemic) [Compound 63],% stimulation of the GABA currents (100 μM),[5],+155 ± 47%
same,Displacement of muscimol,[2]; 100 μM,Muscimol: 100 μM = 0% Ro15-4513: 100 μM = 0%
same,Ro15-4513 displacement,[3],Muscimol: 100 μM = 0% Ro15-4513: 100 μM = 0%
same,inhibition at 100 µM,[4]; tissue not stated,0%
O=C1C=CC(C2c3ccccc3CCN2C(=O)Cc2ccccc2)O1 (racemic) [Compound 55],% stimulation of the GABA currents,[5]; 0.1 μM compound,0%
same,% stimulation of the GABA currents (100 μM),[5],+33 ± 4%
same,Displacement of muscimol,[2]; 100 μM,100 μM = 0%
same,Inhibition of the tritiated ligands % Flu (100 μM),[4]; tissue not stated,95%
same,Inhibition of the tritiated ligands % Flu,"[7]; 0.5 μM, cerebellum",30%
same,Inhibition of the tritiated ligands % Flu,"[7]; 0.5 μM, cortex",20%
same,Inhibition of the tritiated ligands % Flu,"[7]; 10 μM, cerebellum",80%
same,Inhibition of the tritiated ligands % Flu,"[7]; 10 μM, cortex",70%
